According to patent US6218369A, “Pharmaceutical compositions containing flavanolignanes and methods for using same as an antiproliferative” (Indena S.p.A., priority 1995, dated 2001):
Like-named read-outs stand apart in the source and are kept apart here.

Key:
MCF-7 ADRr line = assay: synergistic antiproliferative effect of a combination of ADR and silybin (isobolic method); type: cell-based, human
Protocol: (§1) The determination of the binding to the estrogen receptor has been carried out on cells of ovary tumor or of other organ tumors, cultured in monolayers using as medium the Dulbecco Modified Medium added with calf serum and with 200 unities/ml of penicillin. The cells used for the tests have been trypsinated every week and placed on a plate at a […] density and incubated at 37° C. under air atmosphere containing 5% CO2 and humidity. […] After 24 hours the medium is substituted with fresh medium and the flavanolignanes dissolved in absolute ethanol are added. […] The treatment described above is repeated at 24 hour intervals during the 72 hours of the test time. The inhibition of the cell proliferation is evaluated by direct count of the cells, comparing the growth of the controls versus that of the treated samples.
(§2) The inhibition on cell proliferation is evaluated by direct count of the cells, comparing the growth of controls versus that of the treated ones.
(§3) In order to verify wether such an effect of a combination of silybin with adriamycin or cisplatin is due to a synergistic or an additive action, the data have been analyzed with the isobolic method by Berenbau (Adv. Cancer Res., 25, 269, 1981).

A2780 WT cell line = assay: synergistic antiproliferative effect of the CIS-silybin combination (isobolic method); type: cell-based, human
Protocol: (§4) The determination of the binding to the estrogen receptor has been carried out on cells of ovary tumor or of other organ tumors, cultured in monolayers using as medium the Dulbecco Modified Medium added with calf serum and with 200 unities/ml of penicillin. The cells used for the tests have been trypsinated every week and placed on a plate at a […] density and incubated at 37° C. under air atmosphere containing 5% CO2 and humidity. […] After 24 hours the medium is substituted with fresh medium and the flavanolignanes dissolved in absolute ethanol are added. The controls are treated in the same experimental conditions only with the vehicle in the absence of the active ingredient. The treatment described above is repeated at 24 hour intervals during the 72 hours of the test time. The inhibition of the cell proliferation is evaluated by direct count of the cells, comparing the growth of the controls versus that of the treated samples.
as §2
As reported in Table III, when silybin is used in combination with CIS, a synergistic inhibition effect on the growth is observed, compared with corresponding doses of the medicaments used alone.
as §3

A2780 WT cells [1] = assay: antiproliferative effect on A2780 WT ovary carcinoma cells (direct cell count); type: cell-based, human; settings: for IC50: Homo sapiens
Protocol: as §1, with “samples. The inhibition on cell proliferation is evaluated by direct count of the cells, comparing the growth of controls versus that of the treated ones. […] The results are the average of two experiments carried out in triplicated.” for “samples.”

[2] = test system: tumors implanted in the nude athymic mouse; assay: inhibition of growth of tumors implanted in nude athymic mouse; settings: test not specified (follows in vivo mouse and man results)
Protocol: Moreover, the above flavanolignanes were evidenced to inhibit in vivo the cell proliferation, by measuring the size of tumors implanted in the nude athymic mouse according to the conventional conditions of literature. The treatment of the animals at doses from 1 to 100 mg/Kg evidenced a marked regression of the studied tumors until their disappearance in a high percentage of individuals.
In the in vitro tests flavanolignanes have been used as such, whereas in in vivo tests the complexes thereof with phospholipids, described in EP-A-0209038, have been used.

[3] = molecular target: estrogen receptors of type II; settings: read-out: dissociation affinity constant KD; cited from earlier work
other cell lines = settings: cited from earlier work
human leukemia cells = settings: cited from earlier work
[4] = test system: different stabilized cell lines, including MCF-7 ADRr, A2780 CIS; assay: antiproliferative effect on different stabilized cell lines (overall statement); type: cell-based, human
Description: In order to verify the antiproliferative effect of flavanolignanes, the growth curves of different stabilized cell lines deriving from various human tumors have been examined in the presence of the compounds and their capability to interact with the Type II EBS in ovary carcinoma samples has been evaluated.
as §4, §2

[5] = test system: human tumor primary cultures; assay: antiproliferative activity on human tumor primary cultures; type: cell-based
Description: A plurality of the tested flavanolignanes have a similar behaviour. In Table V, the data relating to silybin, silidianin, silymarin and dehydrosilybin are reported. The diastereomeric forms of silybin and isosilybin are as well active in these tests.

A2780 CIS cells = assay: antiproliferative effect on A2780 CIS (CIS resistant) ovary carcinoma cells; type: cell-based; settings: Homo sapiens, A2780cis, ovary ca CIS resistant, exposure 72 h
Protocol: as §4, §2

A2780 WT cells [6] = assay: cytofluorimetric analysis of cell cycle phase distribution; type: cell-based, human
Protocol: *A2780 WT cells were cultured for 2 days with or without 10 μM silybin.

MCF-7 ADRr cells = assay: antiproliferative effect on MCF-7 ADRr (ADR resistant) breast carcinoma cells; type: cell-based; settings: Homo sapiens, MCF7, breast ca ADR resistant, exposure 72 h
Protocol: as §4, §2

OVCA-433 cells = assay: antiproliferative effect on OVCA-433 ovary carcinoma cells; type: cell-based; settings: Homo sapiens, OVCA433; OVCA-433, ovary ca, exposure 72 h
Protocol: as §4, §2

[7] = isoeffective with ADR 0.1 μg/ml + silybin 0.1 μM (80% of control)
[8] = isoeffective with ADR 0.5 μg/ml + silybin 0.1 μM (76% of control)
[9] = isoeffective with ADR 1 μg/ml + silybin 0.1 μM (69% of control)
[10] = isoeffective with ADR 2.5 μg/ml + silybin 0.1 μM (62% of control)
[11] = isoeffective with ADR 5 μg/ml + silybin 0.1 μM (47% of control)
[12] = isoeffective with ADR 10 μg/ml + silybin 0.1 μM (39% of control)
[13] = isoeffective with CIS 0.1 μg/ml + silybin 0.1 μM (67% control)
[14] = isoeffective with CIS 0.1 μg/ml + silybin 1 μM (54% control)
[15] = isoeffective with CIS 0.25 μg/ml + silybin 0.1 μM (58% control)
[16] = isoeffective with CIS 0.25 μg/ml + silybin 1 μM (35% control)
[17] = isoeffective with CIS 0.5 μg/ml + silybin 0.1 μM (37% control)
[18] = isoeffective with CIS 0.5 μg/ml + silybin 1 μM (25% control)
[19] = isoeffective with CIS 1 μg/ml + silybin 0.1 μM (18% control)
[20] = isoeffective with CIS 1 μg/ml + silybin 1 μM (12% control)
[21] = A2780 WT, ovary ca, exposure 72 h, read-out: IC50

Compound: COc1cccc2c1C(=O)c1c(O)c3c(c(O)c1C2=O)C[C@@](O)(C(=O)CO)C[C@@H]3O[C@H]1C[C@H](N)[C@H](O)[C@H](C)O1 [ADR, adriamycin, reference compound]
- ADR (isoeffective dose alone) (MCF-7 ADRr line; [7]): 0.6 μM/ml
- ADR (isoeffective dose alone) (MCF-7 ADRr line; [8]): 0.9 μM/ml
- ADR (isoeffective dose alone) (MCF-7 ADRr line; [9]): 2.5 μM/ml
- ADR (isoeffective dose alone) (MCF-7 ADRr line; [10]): 5.4 μM/ml
- ADR (isoeffective dose alone) (MCF-7 ADRr line; [11]): > 10 μM/ml
- ADR (isoeffective dose alone) (MCF-7 ADRr line; [12]): > 10 μM/ml

Compound: N.N.[Cl][Pt][Cl] [CIS, cisplatin, reference compound]
- CIS (isoeffective dose alone) (A2780 WT cell line; [13]): 0.23 µg/mL
- CIS (isoeffective dose alone) (A2780 WT cell line; [14]): 0.34 µg/mL
- CIS (isoeffective dose alone) (A2780 WT cell line; [15]): 0.31 µg/mL
- CIS (isoeffective dose alone) (A2780 WT cell line; [16]): 0.56 µg/mL
- CIS (isoeffective dose alone) (A2780 WT cell line; [17]): 0.54 µg/mL
- CIS (isoeffective dose alone) (A2780 WT cell line; [18]): 0.82 µg/mL
- CIS (isoeffective dose alone) (A2780 WT cell line; [19]): > 1 µg/mL
- CIS (isoeffective dose alone) (A2780 WT cell line; [20]): > 1 µg/mL

Compound: COc1cc(C2Oc3cc(-c4oc5cc(O)cc(O)c5c(=O)c4O)ccc3OC2CO)ccc1O (stereo not shown) [dehydrosilybin]
- IC50 (A2780 WT cells [1]; A2780, 72 h): 2.88 µM
- activity [2]: particularly marked activity

Compound: C[C@]12CC[C@@H]3c4ccc(O)cc4CC[C@H]3[C@@H]1CC[C@@H]2O [estradiol]
- Kd [3]: 0.01 to 0.02 µM

Compound: COc1cc(C2Oc3ccc(C4Oc5cc(O)cc(O)c5C(=O)C4O)cc3OC2CO)ccc1O (stereo not shown) [isosilybin]
- activity in these tests (A2780 WT cells [1]; diastereomeric forms, growth tests of Table V): active

Compound: O=c1c(O)c(-c2ccc(O)c(O)c2)oc2cc(O)cc(O)c12 [quercetin]
- activity with the usual chemotherapeuticals (other cell lines): synergistic activity
- inhibiting activity on proliferation (other cell lines; other cell lines): some inhibiting activity
- inhibiting activity on proliferation (human leukemia cells): some inhibiting activity

Compound: COc1cc(C2C3C=C([C@H]4Oc5cc(O)cc(O)c5C(=O)[C@@H]4O)C4C2COC4(O)C3=O)ccc1O (stereo partly shown) [silidianin]
- IC50 (A2780 WT cells [1]; [21]): 12 µM
- activity [2]: particularly marked activity

Compound: COc1cc(C2Oc3cc(C4Oc5cc(O)cc(O)c5C(=O)C4O)ccc3OC2CO)ccc1O (stereo not shown) [silybin]
- antiproliferative effect ([4]; 0.01 μM to 20 μM, FIG. 1 and Table I): dose-dependent antiproliferative effect
- IC50 ([4]; Homo sapiens, different cell lines, silybin 0.01 μM to 20 μM, read-out: IC50 (range over cell lines)): 4.8 to 24 µM
- antiproliferative activity [5]: antiproliferative activity
- Silybin (isoeffective dose alone) (MCF-7 ADRr line; [7]): 0.1 µM
- Silybin (isoeffective dose alone) (MCF-7 ADRr line; [8]): 0.36 µM
- Silybin (isoeffective dose alone) (MCF-7 ADRr line; [9]): 2.2 µM
- Silybin (isoeffective dose alone) (MCF-7 ADRr line; [10]): 7 µM
- Silybin (isoeffective dose alone) (MCF-7 ADRr line; [11]): 35 µM
- Silybin (isoeffective dose alone) (MCF-7 ADRr line; [12]): > 50 µM
- IC50 (A2780 WT cells [1]; [21]): 12 µM
- IC50 (A2780 CIS cells): 14 µM
- cells in phase G2/M (A2780 WT cells [6]; 10 μM silybin, 2 days, control 10.3): 8.6%
- cells in phase S (A2780 WT cells [6]; 10 μM silybin, 2 days, control 31): 20.9%
- cells in phase G0/G1 (A2780 WT cells [6]; 10 μM silybin, 2 days, control 58.7): 70.5%
- effect on percentage of phase G0/G1 cells (A2780 WT cells [6]; A2780 WT): mild increase
- effect on percentage of phase S cells (A2780 WT cells [6]; A2780 WT): decrease in the percentage of phase S cells
- IC50 (MCF-7 ADRr cells): 24 µM
- Silybin (isoeffective dose alone) (A2780 WT cell line; [13]): 2.9 µM
- Silybin (isoeffective dose alone) (A2780 WT cell line; [14]): 8.2 µM
- Silybin (isoeffective dose alone) (A2780 WT cell line; [15]): 6.4 µM
- Silybin (isoeffective dose alone) (A2780 WT cell line; [16]): > 50 µM
- Silybin (isoeffective dose alone) (A2780 WT cell line; [17]): > 50 µM
- Silybin (isoeffective dose alone) (A2780 WT cell line; [18]): > 50 µM
- Silybin (isoeffective dose alone) (A2780 WT cell line; [19]): > 50 µM
- Silybin (isoeffective dose alone) (A2780 WT cell line; [20]): > 50 µM
- IC50 (OVCA-433 cells): 4.8 µM
